From PubChem BioAssay AID1919009 (Molecular Pharmacology Branch, DTP, NCI, 2023)

System: K24384-001-R-PDC complex spheroid growth
Assay: Anticancer human tumor K24384-001-R-PDC patient-derived pancreatic adenocarcinoma cell line growth inhibition [AhR]
Conditions: for IC50: curve of first compound; for viability, T/C: stronger effect = lower value
In short: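 Agents were dosed in half-log steps down from roughly clinical Cmax, or from 10 microM where Cmax was unknown, alone and with AhR antagonists. Read-out: percent test/control growth of tumor spheroids containing HUVEC and MSC stromal cells.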

[1] = second compound 0.1 µM, first compound 0.00949 µM
[2] = second compound 0.1 µM, first compound 0.03 µM
[3] = second compound 0.1 µM, first compound 0.0949 µM
[4] = second compound 0.1 µM, first compound 0.3 µM
[5] = second compound 0.1 µM, first compound 0.949 µM
[6] = second compound 0.1 µM, first compound 3 µM
[7] = second compound 0.316 µM, first compound 0.00949 µM
[8] = second compound 0.316 µM, first compound 0.03 µM
[9] = second compound 0.316 µM, first compound 0.0949 µM
[10] = second compound 0.316 µM, first compound 0.3 µM
[11] = second compound 0.316 µM, first compound 0.949 µM
[12] = second compound 0.316 µM, first compound 3 µM
[13] = second compound 1 µM, first compound 0.00949 µM
[14] = second compound 1 µM, first compound 0.03 µM
[15] = second compound 1 µM, first compound 0.0949 µM
[16] = second compound 1 µM, first compound 0.3 µM
[17] = second compound 1 µM, first compound 0.949 µM
[18] = second compound 1 µM, first compound 3 µM
[19] = second compound 3.16 µM, first compound 0.00949 µM
[20] = second compound 3.16 µM, first compound 0.03 µM
[21] = second compound 3.16 µM, first compound 0.0949 µM
[22] = second compound 3.16 µM, first compound 0.3 µM
[23] = second compound 3.16 µM, first compound 0.949 µM
[24] = second compound 3.16 µM, first compound 3 µM
[25] = second compound 10 µM, first compound 0.00949 µM
[26] = second compound 10 µM, first compound 0.03 µM
[27] = second compound 10 µM, first compound 0.0949 µM
[28] = second compound 10 µM, first compound 0.3 µM
[29] = second compound 10 µM, first compound 0.949 µM
[30] = second compound 10 µM, first compound 3 µM
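Throughout, for viability, T/C: percent of DMSO vehicle-treated spheroid viability set as 100%.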

| SMILES | IC50 (second compound 0.1 µM) [nM] | IC50 (second compound 0.316 µM) [nM] | IC50 (second compound 1 µM) [nM] | IC50 (second compound 3.16 µM) [nM] | IC50 (second compound 10 µM) [nM] | viability, T/C [1] [%] | viability, T/C [2] [%] | viability, T/C [3] [%] | viability, T/C [4] [%] | viability, T/C [5] [%] | viability, T/C [6] [%] | viability, T/C [7] [%] | viability, T/C [8] [%] | viability, T/C [9] [%] | viability, T/C [10] [%] | viability, T/C [11] [%] | viability, T/C [12] [%] | viability, T/C [13] [%] | viability, T/C [14] [%] | viability, T/C [15] [%] | further results |
| --- | --- | --- | --- | --- | --- | --- | --- | --- | --- | --- | --- | --- | --- | --- | --- | --- | --- | --- | --- | --- | --- |
| CCN(c1cc(-c2ccc(CN3CCOCC3)cc2)cc(C(=O)NCc2c(C)cc(C)[nH]c2=O)c1C)C1CCOCC1 + CC(CO)NC(=O)c1cc(-c2ccc(Cl)cc2)nn(-c2cnn(C)c2)c1=O | > 3000 | > 3000 | > 3000 | > 3000 | > 3000 | 119 | 125 | 122 | 107 | 95.4 | 91.8 | 117 | 135 | 125 | 120 | 98.2 | 98.9 | 107 | 139 | 154 | viability, T/C [16]: 144%; viability, T/C [17]: 102%; viability, T/C [18]: 90.8%; viability, T/C [19]: 122%; viability, T/C [20]: 123%; viability, T/C [21]: 113%; viability, T/C [22]: 119%; viability, T/C [23]: 113%; viability, T/C [24]: 119%; viability, T/C [25]: 117%; viability, T/C [26]: 123%; viability, T/C [27]: 118%; viability, T/C [28]: 107%; viability, T/C [29]: 99.4%; viability, T/C [30]: 102% |
| O=C(C=Cn1cnc(-c2cc(C(F)(F)F)cc(C(F)(F)F)c2)n1)NNc1cnccn1 + Cc1ccccc1N=Nc1ccc(NC(=O)c2ccnn2C)c(C)c1 | 238 | 144 | 158 | 149 | 132 | 101 | 104 | 68.2 | 47.9 | 27.1 | 22.9 | 88 | 106 | 62.3 | 32.6 | 30.2 | 22.1 | 97.4 | 89 | 62.3 | viability, T/C [16]: 34.2%; viability, T/C [17]: 26.5%; viability, T/C [18]: 23%; viability, T/C [19]: 76.9%; viability, T/C [20]: 77.6%; viability, T/C [21]: 59.3%; viability, T/C [22]: 34%; viability, T/C [23]: 27.9%; viability, T/C [24]: 19.7%; viability, T/C [25]: 86.3%; viability, T/C [26]: 79.4%; viability, T/C [27]: 57.5%; viability, T/C [28]: 31.4%; viability, T/C [29]: 32.9%; viability, T/C [30]: 25.8% |
